Experimental findings from patent publication US20210137966A1, “VIRUCIDAL COMPOUNDS AND USES THEREOF” (priority 2016, published 2021) are described below.

Assay [1] relates to HSV-2. Description: Evaluation of virucidal activity against HSV-2. Format: cell-based. The conditions noted are these: HSV-2, virucidal assay (FIG. 1/2 bottom). As to the method: (§1) Evaluation of Virucidal Activity Against HSV-2, HPV-16
(§2) Viral titers were calculated at dilutions at which the nanoparticle was not effective

The test system of assay [2] is HPV-16. Description: Evaluation of virucidal activity against HPV-16. The conditions noted are these: FIG. 6. Format: cell-based, human papillomavirus (HPV). As to the method:
as §1, §2

In assay [3] the test system is LV-VSV-G. It counts as cell-based, VSV-G pseudotyped lentivirus.
For assay [4], the system named is HSV-2. Briefly: Inhibition assay HSV-2 (dose response, plaque reduction in Vero cells). Format: cell-based. The conditions noted are these: HSV-2, dose response assay (FIG. 1/2 top). As to the method:
The effect of cyclodextrins (CDs) on HSV infection was evaluated by a plaque reduction assay. Vero cells were pre-plated 24 h in advance in 24-well plates at a density of 10^5 cells. Increasing concentrations of cyclodextrins were incubated with HSV-2 (multiplicity of infection (MOI) 0.0003 plaque forming units (pfu)/cell) at 37° C. for 1 hour and then the mixtures were added to the cells. Following virus adsorption (2 h at 37° C.), the virus inoculum was removed, the cells were washed with medium and then overlaid with a medium containing 1.2% methylcellulose. After 24 h (HSV-2) of incubation at 37° C., cells were fixed and stained with 0.1% of crystal violet in 20% ethanol and viral plaques were counted. The concentration producing 50% reduction in plaque formation (IC50) was determined using the Prism software by comparing drug-treated and untreated wells.

For the compound `O=S(=O)(O)CCCCCCCCCCCSCC1OC2OC3C(CSCCCCCCCCCCCS(=O)(=O)O)OC(OC4C(CSCCCCCCCCCCCS(=O)(=O)O)OC(OC5C(CSCCCCCCCCCCCS(=O)(=O)O)OC(OC6C(CSCCCCCCCCCCCS(=O)(=O)O)OC(OC7C(CSCCCCCCCCCCCS(=O)(=O)O)OC(OC8C(CSCCCCCCCCCCCS(=O)(=O)O)OC(OC1C(O)C2O)C(O)C8O)C(O)C7O)C(O)C6O)C(O)C5O)C(O)C4O)C(O)C3O` (stereo not shown) [CD2], the “Virucidal effect against HSV-2 in virucidal assay” value in assay [1] was “Virucidal effect observed”. In assay [2], the “Virucidal effect against human papillomavirus (HPV)” value is reported as “virucidal effect”. In addition, the “Virucidal effect against Lenti virus” value in assay [3] is recorded as “virucidal effect”.
Consider `O[C@@H]1[C@@H](O)[C@H]2O[C@H]3[C@H](O)[C@@H](O)[C@@H](O[C@H]4[C@H](O)[C@@H](O)[C@@H](O[C@H]5[C@H](O)[C@@H](O)[C@@H](O[C@H]6[C@H](O)[C@@H](O)[C@@H](O[C@H]7[C@H](O)[C@@H](O)[C@@H](O[C@H]8[C@H](O)[C@@H](O)[C@@H](O[C@@H]1[C@@H](CI)O2)O[C@@H]8CI)O[C@@H]7CI)O[C@@H]6CI)O[C@@H]5CI)O[C@@H]4CI)O[C@@H]3CI` [CD1, Heptakis-6-iodo-6-deoxy-beta-cyclodextrin], for which, in assay [3], the “Virucidal assay, Dilutions: 1:10” value came to 27.38 and the “Virucidal assay, Dilutions: Stock” value was found to be 85.49.
Turning to “beta-cyclodextrin sulfonate [reference compound]”, the “Inhibition of HSV-2 in dose response assay” value in assay [4] is given as “Inhibition is observed at high concentrations”. Moreover, in assay [1], the “Virucidal effect against HSV-2 in virucidal assay” value is given as “no virucidal effect is observed”.
